Earlier results in patent publication US20040040468A1, “Drier for printing ink and printing ink containing drier” (DAINIPPON INK AND CHEMICALS, INC., priority 2002, published 2004).

System: rat
Conditions: from database REGISTRY OF TOXIC EFFECTS OF CHEMICAL SUBSTANCES

| Substance | LD50 (rat, oral administration) [mg/kg] |
| --- | --- |
| Cobalt naphthenate | 3900 |
| Manganese naphthenate | 6000 |
